According to patent publication US20250304537A1 (Repare Therapeutics Inc., priority 2022, published 2025):

Target: recombinant human Myt1 (full length PKMYT1) (Homo sapiens (Human), UniProt Q99640)
Assay: Recombinant human Myt1 kinase assay (ADP-Glo)
Type: biochemical
Details: 10 μM ATP
Procedure: Detection of Myt1 kinase activity utilized a recombinant human Myt1 kinase assay measuring the hydrolysis of ATP using a commercially available ADP-Glo Assay (ADP-Glo™ Kinase Assay from Promega, 10 000 assays, #V9102). Briefly, 5 μL recombinant human Myt1 (full length PKMYT1 recombinant human protein expressed in insect cells from Thermo Fisher #A33387; ˜80% purity) was prepared in reaction buffer (70 mM HEPES, 3 mM MgCl2, 3 mM MnCl2, 50 μg/ml PEG 20000, 3 μM Na-orthovanadate, 1.2 mM DTT) and added to 384 well white polystyrene, flat bottom well, non-treated, microplate (Corning #3572). After this, 5 μL of compounds (diluted in reaction buffer to 0.5% DMSO) was added to the microplate and the plate was spun briefly and incubated at 22° C. for 15 minutes. Ultra-Pure Adenosine Triphosphate (ATP) solution (ADP-Glo kit from Promega) was diluted in reaction buffer and 5 μL was added to the microplate, spun down briefly and incubated for 60 minutes at 30° C. The final Myt1 enzyme concentration was 18 nM and the final ATP concentration was 10 μM. After the 60-minute incubation, 15 μL of ADP-Glo reagent was added and the plate was spun briefly and sealed and incubated in the dark for 40 minutes at 22° C. Following this, 30 μL of kinase detection reagent was added per well and the plate was spun briefly, sealed and incubated for 45-60 minutes at 22° C. in the dark. Luminescence was read using the Envision (250 ms integration). The IC50 and the % max inhibition were calculated for each inhibitor compound tested.

Sequence of recombinant human Myt1 (full length PKMYT1) (Q99640 whole entry): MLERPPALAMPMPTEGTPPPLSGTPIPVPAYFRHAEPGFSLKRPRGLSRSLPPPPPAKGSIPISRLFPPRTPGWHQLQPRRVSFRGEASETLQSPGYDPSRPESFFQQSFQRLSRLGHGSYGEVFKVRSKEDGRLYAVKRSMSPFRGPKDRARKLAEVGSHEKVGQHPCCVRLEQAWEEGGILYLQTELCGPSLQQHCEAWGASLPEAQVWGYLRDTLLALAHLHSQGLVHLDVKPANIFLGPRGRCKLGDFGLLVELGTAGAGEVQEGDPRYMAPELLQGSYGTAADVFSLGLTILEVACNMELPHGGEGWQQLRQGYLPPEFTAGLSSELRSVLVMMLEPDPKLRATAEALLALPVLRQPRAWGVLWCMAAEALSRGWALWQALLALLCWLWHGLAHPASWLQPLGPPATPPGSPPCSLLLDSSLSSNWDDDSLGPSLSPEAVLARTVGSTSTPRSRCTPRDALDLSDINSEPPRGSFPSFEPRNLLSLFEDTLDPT

IC50 [nM]	SMILES
29	Cc1ccc2[nH]ncc2c1-c1nc(-c2cccc3c2NCC3)nc(C(N)=O)c1N [Compound 386]
98	Cc1ccc2[nH]ncc2c1-c1cc(-c2ccnc(NCC3(O)COC3)n2)nc(C(N)=O)c1N (atropisomer, axis not shown) [Compound 394]
25	Cc1ccc2[nH]ncc2c1-c1nc(-c2cccc(CN(C)C)c2)nc(C(N)=O)c1N [Compound 291]
640	Cc1ccc2[nH]ncc2c1-c1cc(-c2cccc(OC[C@H]3CCCN3)n2)nc(C(N)=O)c1N (atropisomer, axis not shown) [Compound 387]
81	Cc1ccc2[nH]ncc2c1-c1nc(-c2cccc(CO)c2)nc(C(N)=O)c1N [Compound 305]
100	Cc1ccc2[nH]ncc2c1-c1cc(-c2ccnc(OCc3noc(C4CCCC4)n3)n2)nc(C(N)=O)c1N [Compound 300]
138	Cc1ccc2[nH]ncc2c1-c1cc(-c2ccnc(N3CCC(O)(c4ccccc4)CC3)n2)nc(C(N)=O)c1N [Compound 349]
2	Cc1ccc2[nH]ncc2c1-c1cc(-c2ccnc(N[C@@H](CO)Cc3ccccc3)n2)nc(C(N)=O)c1N (atropisomer, axis not shown) [Compound 383]
213	Cc1ccc2[nH]ncc2c1-c1nc(-c2cccc(CNc3ncc(C(F)(F)F)cn3)c2)nc(C(N)=O)c1N [Compound 296]
18	Cc1ccc2[nH]ncc2c1-c1cc(-c2ccnc(OCc3cncn3C3CCCCC3)n2)nc(C(N)=O)c1N [Compound 328]
14	Cc1ccc2[nH]ncc2c1-c1cc(-c2cccc(OC[C@H]3CCCN3)n2)nc(C(N)=O)c1N [Compound 374]
19	Cc1ccc2[nH]ncc2c1-c1cc(-c2ccnc(OC[C@H]3CCC(=O)N3)n2)nc(C(N)=O)c1N [Compound 337]
4	Cc1ccc2[nH]ncc2c1-c1cc(-c2ccnc(N[C@@H]3c4ccccc4C[C@@H]3O)n2)nc(C(N)=O)c1N (atropisomer, axis not shown) [Compound 384]
1160	COc1ccc(COc2cccc(-c3cc(-c4c(C)ccc5[nH]ncc45)c(N)c(C(N)=O)n3)n2)cc1 [Compound 339]
69	Cc1ccc2[nH]ncc2c1-c1cc(-c2ccnc(O[C@H](C)c3ncccn3)n2)nc(C(N)=O)c1N (atropisomer, axis not shown) [Compound 358]
149	CO[C@@H](COc1cccc(-c2cc(-c3c(C)ccc4[nH]ncc34)c(N)c(C(N)=O)n2)c1)c1ccccc1 [Compound 351]
13	Cc1ccc2[nH]ncc2c1-c1cc(-c2ccnc(OCC3CCC(=O)N3)n2)nc(C(N)=O)c1N (stereo not shown) [Compound 317]
11	Cc1ccnc(-c2cc(-c3c(C)ccc4[nH]ncc34)c(N)c(C(N)=O)n2)c1 (atropisomer, axis not shown) [Compound 280]
21	Cc1nnc(COc2cccc(-c3cc(-c4c(C)ccc5[nH]ncc45)c(N)c(C(N)=O)n3)n2)o1 [Compound 318]
8	CO[C@H](COc1cccc(-c2cc(-c3c(C)ccc4[nH]ncc34)c(N)c(C(N)=O)n2)n1)C1CC1 (atropisomer, axis not shown) [Compound 364]
> 2000	Cc1ccc2[nH]ncc2c1-c1nc(-c2cc(F)c(F)cc2NC2CN(C(=O)OC(C)(C)C)C2)nc(C(N)=O)c1N [Compound 479]
869	Cc1ccc2[nH]ncc2c1-c1cc(-c2ccnc(N[C@H](CO)Cc3ccccc3)n2)nc(C(N)=O)c1N (atropisomer, axis not shown) [Compound 370]

Second part, the compound before the results:

SMILES	IC50 [nM]
Cc1ccc2[nH]ncc2c1-c1cc(-c2ccnc(OCCOc3ccccc3)n2)nc(C(N)=O)c1N [Compound 195]	182
Cc1ccc2[nH]ncc2c1-c1nc(-c2ccc(C(F)(F)F)cc2)nc(C(N)=O)c1N [Compound 104]	317
Cc1ccc2[nH]ncc2c1-c1nc(-c2cccnc2)nc(C(N)=O)c1N [Compound 99]	59
Cc1ccc2[nH]ncc2c1-c1cc(-c2ccnc(OCCN3CCCC3)n2)nc(C(N)=O)c1N (atropisomer, axis not shown) [Compound 233]	859
Cc1ccc2[nH]ncc2c1-c1nc(-c2ccccn2)nc(C(N)=O)c1N [Compound 117]	90
Cc1ccc2[nH]ncc2c1-c1nc(-c2ccc(Oc3ccccc3)cc2)nc(C(N)=O)c1N [Compound 113]	1110
CNc1ccc(-c2nc(C(N)=O)c(N)c(-c3c(C)ccc4[nH]ncc34)n2)cc1 [Compound 152]	44
Cc1ccc2[nH]ncc2c1-c1nc(-c2ccc(CN3CCOCC3)cc2)nc(C(N)=O)c1N [Compound 147]	217
Cc1ccc(O)cc1-c1cc2cccnc2c(C(N)=O)c1N [Compound 1, 7-amino-6-(5-hydroxy-2-methylphenyl)quinoline-8-carboxamide]	> 50000
Cc1ccc2[nH]ncc2c1-c1cc(-c2ccnc(OCCc3ccncc3)n2)nc(C(N)=O)c1N [Compound 263]	19
Cc1ccc2[nH]ncc2c1-c1cc(-c2cccc(OCc3nccc(N4CCOCC4)n3)n2)nc(C(N)=O)c1N [Compound 259]	584
COCCCOc1ccc(-c2nc(C(N)=O)c(N)c(-c3c(C)ccc4[nH]ncc34)n2)cc1 [Compound 138]	43
COc1ccccc1COc1cccc(-c2cc(-c3c(C)ccc4[nH]ncc34)c(N)c(C(N)=O)n2)n1 [Compound 181]	103
Cc1ccc2[nH]ncc2c1-c1nc(-c2ccc3cn[nH]c3c2)nc(C(N)=O)c1N [Compound 129]	23
Cc1ccc2[nH]ncc2c1-c1cc(-c2cccc(OCc3c(F)c(F)c(F)c(F)c3F)n2)nc(C(N)=O)c1N [Compound 258]	> 2000
Cc1ccc2[nH]ncc2c1-c1cc(-c2ccnc(OCCN(C)C(=O)OC(C)(C)C)n2)nc(C(N)=O)c1N [Compound 209]	73
Cc1ccc2[nH]ncc2c1-c1cc(-c2ccccn2)nc(C(N)=O)c1N [Compound 96]	387
Cc1ccc(O)cc1-c1nc(-c2cccc(C(N)=O)c2)nc(C(N)=O)c1N [Compound 8]	25
Cc1ccc2[nH]ncc2c1-c1cc(-c2cccc(OCc3ccn(C)n3)n2)nc(C(N)=O)c1N [Compound 248]	71
Cc1ccc(O)cc1-c1nc(-c2ccc(C#N)cc2)nc(C(N)=O)c1N [Compound 23]	51
Cc1ccc(O)cc1-c1nc(-c2cccc(F)n2)nc(C(N)=O)c1N [Compound 5]	25
Cc1ccc2[nH]ncc2c1-c1nc(-c2ccc(N(C)C)cc2)nc(C(N)=O)c1N [Compound 145]	57
CCCCc1cc(-c2c(C)ccc3[nH]ncc23)c(N)c(C(N)=O)n1 [Compound 216, 3-amino-6-butyl-4-(5-methyl-1H-indazol-4-yl)picolinamide]	1510
Cc1ccc(O)cc1-c1nc(-c2cnn(C)c2)nc(C(N)=O)c1N [Compound 34]	81
Cc1ccc(O)cc1-c1nc(-c2ccc(N)nc2)nc(C(N)=O)c1N [Compound 33]	52
Cc1ccc(O)cc1-c1cc(C(N)=O)nc2ccccc12 [Compound 74, 4-(5-hydroxy-2-methylphenyl)quinoline-2-carboxamide]	2880
Cc1ccc2[nH]ncc2c1-c1nc(-c2ccc(OC3CCOCC3)c(C#N)c2)nc(C(N)=O)c1N [Compound 118]	309
